# Entries after “also recorded” stand apart in the source; their conditions may differ.
# How the values were obtained:
# [1] = test system: angiotensin II infused apolipoprotein E deficient mice; test: Angiotensin II-induced abdominal aortic aneurysm formation in apoE deficient mice; assay type: in vivo
# Description: (§1) Six-month old apolipoprotein E deficient mice were chronically infused with angiotensin II (1.44 mg/Kg/day) for 4 weeks to induce an abdominal aortic aneurysm (AAA) and accelerate atherosclerosis development. The mice were treated with Compound 2 (1.5 g/L in drinking water) or vehicle for 4 weeks. […] These effects were associated with a reduction of serum lipid, IL-6, murine IL-8 KC and IL-1α, and down-regulation of gene expressions of ICAM-1, VCAM-1 and IL-6 in the arterial wall. […] The attendant down-regulation of inflammatory mediators and lipid lowering effects may both contribute to the observed vascular protective effects.
# (§2) Six-month old male apoE deficient mice (The Jackson Laboratory, Bar Harbor, Me.) fed a normal chow (Harlan Teklad diet #2018, Harlan Laboratories, Inc., Indianapolis, Ind.) were used in this study. Baseline blood pressure and body weight were measured before surgery. Animals were anesthetized by inhalation of 2% isoflurane. The left common carotid artery was carefully dissected via a midline neck incision under a dissecting microscope, and then ligated with a 6-0 silk ligature just proximal to its bifurcation. At the time of ligation, a minipump (model 2004, Durect Corp., Cupertino, Calif.) filled with Ang II (1.44 mg/Kg/day, Phoenix Pharmaceuticals, Burlingame, Calif.) was implanted subcutaneously. The animals were randomly divided into 2 groups; Vehicle: drinking water containing 5% hydroxypropyl-beta-cyclodextrin (HPBCD) or Compound 2 in drinking water containing 1.5 mg/mL Compound 2 in 5% HPBCD. Each experimental group included 11 animals. After 4 weeks of Ang II infusion, systolic blood pressure was measured in conscious mice using a tail-cuff system (Kent Scientific Corporation, Torrington, Conn.), and the animals were euthanized. Blood samples were collected via cardiac puncture for the measurement of a serum cholesterol profile (IDEXX Veterinary Services, West Sacramento, Calif.) and serum inflammatory panel (Murigenics, Hayward, Calif.) using a mouse cytokine/chemokine panel kit (Millipore, Billerica, Mass.), and tissues were removed for analysis (see below).
# Chronic infusion of Ang II induced aneurysm formation in the abdominal aorta in 7 of 11 (64%) control apoE deficient mice. Treatment with Compound 2 reduced the incidence of aneurysm formation to 18% (2 of 11). […] There was no type VI aneurysm found in this study.
# There were foci of acute hemorrhage present in the intima. The intima was occasionally disrupted by plaques of Mac-3-positive foam cells on the luminal side of the internal elastic lamina. […] The thickness of the media was increased by extracellular matrix depositing between smooth muscle bundles and stained with trichrome as collagen. Elastin fibers in the media were discontinuous and irregularly oriented. The adventitia was markedly thickened by extracellular matrix that was predominately collagen. There was a modest increase in adventitial cellularity including fibroblasts and Mac-3-positive mononuclear cells. […] These vessels did have medial changes including collagen deposition and some increase in elastin fibers, but the internal elastic lamina generally remained intact and retained a distinctive media of smooth muscle.
# [2] = test system: angiotensin II infused apolipoprotein E deficient mice; test: Atherosclerotic lesion development in aortic arch and non-ligated right carotid artery of Ang II infused apoE deficient mice; assay type: in vivo; conditions: vs vehicle
# Description: as §1
# as §2, with “Blood samples were collected via cardiac puncture for the measurement of a serum cholesterol profile (IDEXX Veterinary Services, West Sacramento, Calif.) and serum inflammatory panel (Murigenics, Hayward, Calif.) using a mouse cytokine/chemokine panel kit (Millipore, Billerica, Mass.), and tissues were removed for analysis (see below).” left out
# [3] = test system: angiotensin II infused apolipoprotein E deficient mice; test: Ligation-induced vascular remodeling in the left carotid artery; assay type: in vivo
# Description: as §2, with “Blood samples were collected via cardiac puncture for the measurement of a serum cholesterol profile (IDEXX Veterinary Services, West Sacramento, Calif.) and serum inflammatory panel (Murigenics, Hayward, Calif.) using a mouse cytokine/chemokine panel kit (Millipore, Billerica, Mass.), and tissues were removed for analysis (see below).” left out
# Ligation of the left carotid arteries for four weeks induced vascular remodeling, including neointima formation and adventitial proliferation, leading to expansive remodeling as measured by enlargement of vessel diameter. […]
# [4] = test system: VCAM-1, ICAM-1, IL-6, IL-1α and PPARs gene expression in the ascending aortic tissue; test: Expression of pro-inflammatory genes in ascending aortic tissue; assay type: in vivo, mice; conditions: vs vehicle
# Description: as §2
# (§3) Using the animal model as reported in Martin-McNulty B, et al., 17 Beta-estradiol attenuates development of angiotensin II-induced aortic abdominal aneurysm in apolipoprotein E-deficient mice. Arterioscler Thromb Vasc Biol. 2003; 23(9):1627-1632 and Tham D M, et al., Angiotensin II is associated with activation of NF-kappaB-mediated genes and downregulation of PPARs. Physiol Genomics.
# [5] = test system: circulating IL-6, murine IL-8-KC, IL-1α, serum lipid; test: Serum inflammatory panel and serum lipid in Ang II infused apoE deficient mice; assay type: in vivo
# Description: as §2, §3
# [6] = ascending aortic tissue / arterial wall
smiles,measurement,setting,value
"O=C(Nc1ccc(OC(F)(F)F)cc1)NC1CCN(C(=O)c2cccnc2)CC1 [Compound 2, 1-(1-nicotinoylpiperidin-4-yl)-3-(4-(trifluoromethoxy)phenyl)urea]",average outer diameter of the suprarenal aorta,"[1]; 1.5 mg/mL in drinking water, 4 weeks, vs vehicle group",significantly smaller
same,"AAA formation (rate), effect in words","[1]; 1.5 g/L in drinking water, 4 weeks Ang II infusion, vs vehicle",significantly reduced; also recorded: partially prevented
same,incidence of aneurysm formation,"[1]; Compound 2 1.5 mg/mL in drinking water (5% HPBCD), 4 weeks Ang II 1.44 mg/Kg/day, 2 of 11 mice, vehicle 64%",18%
same,aneurysm severity measured by category score,"[1]; mice that developed aneurysm, vehicle group majority type III",majority with type 0 and I
same,adventitia thickness (histology),"[1]; vs vehicle group (markedly thickened), 4 weeks",relatively thin
same,intimal plaques in aorta (histological staining),"[1]; vs vehicle group, 4 weeks",fewer intimal plaques
same,macrophage and iron accumulation in the adventitia,"[1]; vs vehicle group, 4 weeks",less macrophage and no iron accumulation
same,"macrophage and iron accumulation in the intima (Mac-3, Prussian blue)","[1]; vs vehicle group, 4 weeks",no evidence of macrophage and iron accumulation
same,atherosclerotic lesion area (overall),"[2]; 1.5 g/L in drinking water, 4 weeks Ang II infusion",significantly reduced
same,atherosclerotic lesion size/area in the aortic arch,[2]; 4 weeks,significantly reduced
same,atherosclerotic lesion size/area in the carotid artery,"[2]; non-ligated right carotid artery, 4 weeks",significantly reduced
same,average diameter of the ligated carotid arteries,"[3]; Compound 2 vs vehicle group, four weeks",not significantly different
same,"ligation-induced vascular remodeling (neointima formation, adventitial proliferation, expansive remodeling)",[3]; left carotid artery ligated four weeks,not affected
same,ICAM-1 gene expression,[4]; [6],down-regulation; also recorded: significantly reduced
same,IL-6 gene expression,[4]; [6],down-regulation; also recorded: significantly reduced
same,VCAM-1 gene expression,[4]; [6],down-regulation; also recorded: significantly reduced
same,IL-1α gene expression,[4]; ascending aortic tissue,did not significantly affect
same,PPARs gene expression,[4]; ascending aortic tissue,did not significantly affect
same,serum lipid,[5]; 4 weeks treatment,reduction
same,circulating protein level of IL-6,[5]; vs vehicle group,reduction; also recorded: significantly lower
same,circulating protein level of murine IL-8-KC,[5]; vs vehicle group,reduction; also recorded: significantly lower
same,serum IL-1α,[5]; vs vehicle group,reduction; also recorded: reduced
